From the OPERA property sets (Mansouri et al. 2018)

| SMILES | logP |
| --- | --- |
| O=C1NC(=S)NC(=O)C12CCCCC2 | 1.78 |
| CC1(c2ccccc2)C(=O)NC(=O)NC1=O | 0.91 |
| O=C1NC(=O)C2(CCCCC2)C(=O)N1 | 0.91 |
| O=C1NC(=O)C2(CCC2)C(=O)N1 | -0.27 |
| O=C1NC(=O)C2(CCCCCCC2)C(=O)N1 | 1.79 |
| CC(C)=CCC1(C(C)C)C(=O)NC(=O)NC1=O | 2.23 |
| CCC1(CC=C(C)C)C(=O)NC(=O)NC1=O | 1.73 |
| O=C1NC(=O)C2(CCCCCCCCCCC2)C(=O)N1 | 3.51 |
| CC1(C)C(=O)NC(=O)NC1=O | -0.44 |
| O=C1NC(=O)C2(CCCC2)C(=O)N1 | 0.24 |
| O=C1NC(=O)C2(CCCCCCCCCC2)C(=O)N1 | 3.15 |
| CCC1(C)C(=O)NC(=O)NC1=O | 0.08 |
| O=C1NC(=O)C(c2ccccc2)(c2ccccc2)C(=O)N1 | 1.96 |
| C=CCC1(C)C(=O)NC(=O)NC1=O | 0.36 |
| O=C1NC(=O)C2(CCCCCC2)C(=O)N1 | 1.36 |
| O=C1NC(=O)C2(CC2)C(=O)N1 | -0.53 |
| CC(C)=CCC1(C(C)(C)C)C(=O)NC(=O)NC1=O | 2.56 |
